Test results as given in patent US10213415B2, “Compounds as opioid receptor modulators” (JANSSEN PHARMACEUTICA NV, priority 2004, dated 2019).
pKi: −log10 of the molar value.

Assays:
[1] = target: T1, human delta subtype 2 opioid receptor (Homo sapiens, UniProt P41143); test: Human Delta Opioid Receptor Binding Assay (CHO membranes, 3H-Naltrindole); conditions: read-out: hKi δ
T1 construct: purchased Perkin Elmer RBHODM400UA; host or cells: Chinese Hamster Ovary cells (recombinant expression)
Method: This assay is designed to test the ability of a compound to interfere with the binding of tritiated Naltrindole to the human delta subtype 2 opioid receptor. Membranes from Chinese Hamster Ovary cells expressing the human delta subtype 2 opioid receptor (Perkin Elmer #RBHODM400UA) are homogenized in assay buffer (50 mM Tris, pH 7.5 with 5 mM MgCl2) using a glass tissue grinder, Teflon pestle and a Steadfast Stirrer (Fisher Scientific). The concentration of membranes is adjusted to 100 μg/mL in assay buffer and 100 μL is dispensed into each well of the assay plate, a 96 well round bottom polypropylene plate. Compounds to be tested are solubilized in DMSO (Pierce), 10 mM, then diluted in assay buffer to 6× the desired final concentration. The ligand, ^3H-Naltrindole (Perkin Elmer #NET-1065) is also diluted in assay buffer to 6 nM. In a second 96 well round bottom polypropylene plate, known as the premix plate, 60 μL of the 6× compound is combined with 60 μL of 6 nM ^3H-Naltrindole. From this premix plate 50 μL is transferred to the assay plate containing the membranes, in duplicate. The assay plate is incubated for 30 min at room temperature. A GF/C 96 well filter plate (Perkin Elmer #6005174) is pretreated with 0.3% polyethylenimine for 30 min. The contents of the assay plate are filtered through the filter plate using a Packard Filtermate Harvester, and washed 3 times with 0.9% saline that is 4° C. The filter plate is dried, the underside sealed, and 30 μL Microscint20 (Packard #6013621) added to each well. A Topcount-NXT Microplate Scintillation Counter (Packard) is used to measure emitted energies in the range of 2.9 to 35 KeV. Results are compared to maximum binding, wells receiving no inhibitors. Nonspecific binding is determined in the presence of 1 μM unlabelled Naltrindole (Sigma #N115).

human mu opioid receptor = target: T2, human mu opioid receptor (Homo sapiens, UniProt P35372); test: Human Mu Opioid Receptor Binding Assay (CHO membranes, 3H-Damgo); conditions: read-out: hKi μ
T2 construct: purchased Perkin Elmer RBHOMM400UA; host or cells: Chinese Hamster Ovary cells (recombinant expression)
Method: Membranes from Chinese Hamster Ovary cells expressing the human […] opioid receptor (Perkin Elmer #RBHOMM400UA) are homogenized in assay buffer (50 mM Tris, pH 7.5 with 5 mM MgCl2) using a glass tissue grinder, Teflon pestle and a Steadfast Stirrer (Fisher Scientific). The concentration of membranes is adjusted to 300 μg/mL in assay buffer and 100 μL is dispensed into each well of the assay plate, a 96 well round bottom polypropylene plate. Compounds to be tested are solubilized in DMSO (Pierce), 10 mM, then diluted in assay buffer to 6× the desired final concentration. The ligand, ^3H-Damgo (Perkin Elmer #NET-902) is also diluted in assay buffer to 3.6 nM. In a second 96 well round bottom polypropylene plate, known as the premix plate, 60 μL of the 6× compound is combined with 60 μL of 3.6 nM ^3H-Damgo. From this premix plate 50 μL is transferred to the assay plate containing the membranes, in duplicate. The assay plate is incubated for 2 h at room temperature. A GF/C 96 well filter plate (Perkin Elmer #6005174) is pretreated with 0.3% polyethylenimine for 30 min. The contents of the assay plate are filtered through the filter plate using a Packard Filtermate Harvester, and washed 3 times with 0.9% saline that is 4° C. The filter plate is dried, the underside sealed, and 30 μL Microscint20 (Packard #6013621) added to each well. A Topcount-NXT Microplate Scintillation Counter (Packard) is used to measure emitted energies in the range of 2.9 to 35 KeV. […] Nonspecific binding is determined in the presence of 1 μM unlabelled Damgo (Tocris #1171).

T2 sequence (P35372 whole entry): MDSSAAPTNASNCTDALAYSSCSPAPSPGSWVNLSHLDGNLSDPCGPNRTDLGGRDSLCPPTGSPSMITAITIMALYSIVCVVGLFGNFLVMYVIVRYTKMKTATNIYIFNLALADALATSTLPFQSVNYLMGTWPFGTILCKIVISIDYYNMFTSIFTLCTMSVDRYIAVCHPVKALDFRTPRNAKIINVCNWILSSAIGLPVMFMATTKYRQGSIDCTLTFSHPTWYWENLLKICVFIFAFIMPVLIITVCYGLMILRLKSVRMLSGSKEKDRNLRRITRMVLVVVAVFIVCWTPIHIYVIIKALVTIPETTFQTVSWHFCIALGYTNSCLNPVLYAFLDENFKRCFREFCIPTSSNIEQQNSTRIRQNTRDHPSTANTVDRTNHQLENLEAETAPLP
T1 sequence (P41143 whole entry): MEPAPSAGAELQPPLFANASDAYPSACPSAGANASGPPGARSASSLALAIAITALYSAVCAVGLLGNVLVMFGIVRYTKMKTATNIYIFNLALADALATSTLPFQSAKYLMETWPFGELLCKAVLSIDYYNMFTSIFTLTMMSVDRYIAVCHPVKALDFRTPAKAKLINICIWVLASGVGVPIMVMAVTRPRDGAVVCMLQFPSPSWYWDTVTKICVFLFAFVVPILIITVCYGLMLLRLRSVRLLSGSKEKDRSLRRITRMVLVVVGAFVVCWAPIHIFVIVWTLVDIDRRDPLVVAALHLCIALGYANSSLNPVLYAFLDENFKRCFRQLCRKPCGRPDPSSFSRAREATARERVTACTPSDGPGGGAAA

Row | SMILES | pKi [1] | pKi (human mu opioid receptor)
1 | Cc1cc(C(N)=O)cc(C)c1C[C@H](N)C(=O)N(Cc1ccccc1)[C@@H](COCc1ccccc1)c1nc(-c2ccccc2)c[nH]1 [Cpd 64] | 5.96 | 6.93
2 | Cc1cc(C(N)=O)cc(C)c1C[C@H](N)C(=O)N(Cc1ccccc1)[C@@H](C)c1nc(-c2cccc(F)c2)c[nH]1 [Cpd 59] | 6.92 | 8.29
3 | Cc1cc(O)cc(C)c1C[C@H](N)C(=O)N(CC1CCN(C(=O)OCc2ccccc2)CC1)[C@@H](C)c1nc(-c2ccccc2)c[nH]1 [Cpd 53] | 7.02 | 7.88
4 | Cc1cc(O)cc(C)c1C[C@H](N)C(=O)N(Cc1nc(-c2cc(F)ccc2F)c(C)[nH]1)C(C)C [Cpd 61] | 6.61 | 8.52
5 | Cc1cc(O)cc(C)c1C[C@H](N)C(=O)N(CC1CCCCC1)[C@@H](C)c1nc(-c2ccccc2)c[nH]1 [Cpd 56] | 6.65 | 7.19
6 | Cc1cc(O)cc(C)c1C[C@H](N)C(=O)N(Cc1nc(-c2cccc3ccccc23)c(C)[nH]1)C(C)C [Cpd 156] | 6.42 | 9.23
7 | Cc1cc(O)cc(C)c1C[C@H](N)C(=O)N(Cc1ccccc1)[C@@H](CC(C)C)c1nc(-c2ccccc2)c[nH]1 [Cpd 104] | 6.32 | 7.00
8 | Cc1cc(O)cc(C)c1C[C@H](N)C(=O)N(Cc1nc(-c2ccc(C(=O)O)cc2)c(C)[nH]1)C(C)C [Cpd 123] | 7.08 | 7.33
9 | Cc1cc(O)cc(C)c1C[C@H](N)C(=O)N(Cc1nc(-c2cccc(C#N)c2)c(C)[nH]1)C(C)C [Cpd 60] | 6.94 | 8.70
10 | Cc1cc(C(N)=O)cc(C)c1C[C@H](N)C(=O)N(Cc1nc(-c2ccccc2)c[nH]1)C(C)C [Cpd 86] | 6.40 | 9.00
11 | Cc1cc(O)cc(C)c1C[C@H](N)C(=O)N(C(C)C)[C@@H](Cc1cccc(C(N)=O)c1)c1nc(-c2ccccc2)c[nH]1 [Cpd 121] | 6.74 | 7.60
12 | Cc1[nH]c(CN(C(=O)[C@@H](N)Cc2ccc(O)cc2)C(C)C)nc1-c1ccccc1 [Cpd 154] | < 5.00 | 9.00
13 | Cc1cc(O)cc(C)c1C[C@H](N)C(=O)N(Cc1nc(-c2cccnc2)c(C)[nH]1)C(C)C [Cpd 124] | 5.89 | 8.77
14 | Cc1cc(O)cc(C)c1C[C@H](N)C(=O)N(Cc1ccccc1)[C@@H](Cc1ccccc1)c1nc(-c2ccccc2)c[nH]1 [Cpd 105] | 6.13 | 6.39
15 | Cc1cc(O)cc(C)c1CC(N)C(=O)N(Cc1ccccc1)C(C)c1nc(-c2ccc(F)cc2)c[nH]1 (centres unmarked) [Cpd 83] | 7.32 | 8.33
16 | CC(C)N(C(=O)[C@@H](N)Cc1ccc(O)cc1)[C@@H](Cc1ccccc1)c1nc(-c2ccccc2)c[nH]1 [Cpd 158] | < 5.00 | 9.64
17 | COc1ccccc1-c1nc(CN(C(=O)[C@@H](N)Cc2c(C)cc(O)cc2C)C(C)C)[nH]c1C [Cpd 135] | 5.98 | 8.15
18 | Cc1cc(O)cc(C)c1C[C@H](N)C(=O)N(Cc1nc(Br)c(C)[nH]1)C(C)C [Cpd 65] | 6.29 | 9.44
19 | Cc1cc(O)cc(C)c1C[C@H](N)C(=O)N(C(C)C)[C@@H](CC(C)C)c1nc(-c2ccccc2)c[nH]1 [Cpd 140] | 6.01 | 7.10
